The text below walks through data of patent US11339130B1 (Blade Therapeutics, Inc., priority 2016, dated 2022).

Read-outs that look alike come from different tables or passages of the source.

Common to all, as to format: biochemical
One assay concerns the target T1, Human Calpain 1/NS1 (Homo sapiens, UniProt P07384).
T1 sequence (P07384 1-714): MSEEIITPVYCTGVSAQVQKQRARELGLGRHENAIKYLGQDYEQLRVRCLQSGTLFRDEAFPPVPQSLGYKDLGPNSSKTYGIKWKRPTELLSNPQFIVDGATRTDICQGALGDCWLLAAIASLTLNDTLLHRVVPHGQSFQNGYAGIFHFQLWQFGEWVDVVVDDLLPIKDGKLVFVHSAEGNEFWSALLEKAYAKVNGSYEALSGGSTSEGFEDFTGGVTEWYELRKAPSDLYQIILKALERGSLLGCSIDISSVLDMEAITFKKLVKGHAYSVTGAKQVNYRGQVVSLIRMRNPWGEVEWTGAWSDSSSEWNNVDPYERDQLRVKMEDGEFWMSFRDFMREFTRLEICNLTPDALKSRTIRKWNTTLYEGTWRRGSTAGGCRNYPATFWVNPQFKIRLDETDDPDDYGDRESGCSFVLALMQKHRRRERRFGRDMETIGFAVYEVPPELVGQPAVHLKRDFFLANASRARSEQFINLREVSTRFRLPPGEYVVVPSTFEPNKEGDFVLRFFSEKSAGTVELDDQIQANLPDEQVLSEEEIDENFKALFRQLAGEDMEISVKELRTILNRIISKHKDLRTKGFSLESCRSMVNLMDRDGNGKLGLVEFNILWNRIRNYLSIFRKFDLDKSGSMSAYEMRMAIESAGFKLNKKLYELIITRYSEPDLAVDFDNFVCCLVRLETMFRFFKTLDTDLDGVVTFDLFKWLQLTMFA
T1 sequence (P04632 1-268 partner): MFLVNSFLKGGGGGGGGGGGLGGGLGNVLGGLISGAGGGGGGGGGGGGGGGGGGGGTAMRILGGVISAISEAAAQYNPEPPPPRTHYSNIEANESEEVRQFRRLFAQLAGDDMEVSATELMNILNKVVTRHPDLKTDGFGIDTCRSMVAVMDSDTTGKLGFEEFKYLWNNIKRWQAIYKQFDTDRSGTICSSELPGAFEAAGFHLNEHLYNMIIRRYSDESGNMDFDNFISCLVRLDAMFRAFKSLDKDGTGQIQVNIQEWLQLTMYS
The assay is described as follows: Calpain inhibition continuous fluorescence (FRET) assay, Human Calpain 1/NS1. The conditions noted are these: read-out: Human Calpain 1/NS1 IC50. In outline:
(§1)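 Continuous FRET read (ex 490/em 520 nm, 10 min) of calpain 1, 2 or 9 cleaving an internally quenched 5-FAM peptide, triggered by substrate with CaCl2 after enzyme–inhibitor incubation at ambient 25 °C, pH 7.5 Tris/NaCl/DTT buffer. IC50 from initial rates (1-5 min) via 4-parameter fit.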

In a further assay the target is T2, Human Calpain 9/NS1 (Homo sapiens, UniProt O14815).
T2 sequence (O14815 1-690): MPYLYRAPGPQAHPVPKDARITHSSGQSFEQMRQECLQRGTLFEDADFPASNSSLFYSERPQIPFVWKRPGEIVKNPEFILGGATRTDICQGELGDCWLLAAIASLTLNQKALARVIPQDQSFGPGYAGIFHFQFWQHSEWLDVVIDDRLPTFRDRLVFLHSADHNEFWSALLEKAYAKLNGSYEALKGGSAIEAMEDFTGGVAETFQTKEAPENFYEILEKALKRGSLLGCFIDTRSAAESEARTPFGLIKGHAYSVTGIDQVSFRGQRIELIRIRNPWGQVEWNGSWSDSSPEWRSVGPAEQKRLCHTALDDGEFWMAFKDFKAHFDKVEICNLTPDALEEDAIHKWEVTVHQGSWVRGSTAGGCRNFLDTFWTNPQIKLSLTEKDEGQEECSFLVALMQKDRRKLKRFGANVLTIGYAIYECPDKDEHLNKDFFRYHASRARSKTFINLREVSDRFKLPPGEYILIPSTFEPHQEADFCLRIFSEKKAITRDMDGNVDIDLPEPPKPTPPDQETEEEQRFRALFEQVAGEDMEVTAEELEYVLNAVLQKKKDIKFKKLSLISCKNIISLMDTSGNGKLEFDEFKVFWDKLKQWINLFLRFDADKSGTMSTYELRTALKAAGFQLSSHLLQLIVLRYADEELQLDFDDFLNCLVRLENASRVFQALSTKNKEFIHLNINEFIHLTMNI
T2 sequence (P04632 1-268 partner): T1 sequence (P04632 1-268 partner)
The assay is described as follows: Calpain inhibition continuous fluorescence (FRET) assay, Human Calpain 9/NS1. The conditions noted are these: read-out: Human Calpain 9/NS1 IC50. Put shortly: as §1

For a further assay, the target named is T3, Human Calpain 2/NS1 (Homo sapiens, UniProt P17655).
T3 sequence (P17655 1-700): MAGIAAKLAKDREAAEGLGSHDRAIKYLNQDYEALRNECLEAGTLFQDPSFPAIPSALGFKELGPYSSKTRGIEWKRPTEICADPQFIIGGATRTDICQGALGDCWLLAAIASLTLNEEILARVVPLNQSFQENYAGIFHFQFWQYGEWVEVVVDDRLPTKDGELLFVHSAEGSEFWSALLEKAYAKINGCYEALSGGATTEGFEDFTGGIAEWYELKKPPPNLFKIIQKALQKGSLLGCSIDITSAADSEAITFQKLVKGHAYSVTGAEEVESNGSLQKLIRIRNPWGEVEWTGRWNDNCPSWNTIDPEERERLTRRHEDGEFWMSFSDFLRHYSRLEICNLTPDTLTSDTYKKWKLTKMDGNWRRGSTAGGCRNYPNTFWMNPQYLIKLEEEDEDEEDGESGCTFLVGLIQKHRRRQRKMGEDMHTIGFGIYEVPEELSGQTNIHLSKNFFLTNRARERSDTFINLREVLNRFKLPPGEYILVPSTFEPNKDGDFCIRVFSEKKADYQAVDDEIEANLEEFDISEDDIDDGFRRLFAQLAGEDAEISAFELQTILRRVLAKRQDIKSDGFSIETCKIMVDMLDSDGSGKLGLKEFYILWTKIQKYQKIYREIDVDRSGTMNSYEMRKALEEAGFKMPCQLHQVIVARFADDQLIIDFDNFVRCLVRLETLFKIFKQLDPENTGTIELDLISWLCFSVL
T3 sequence (P04632 1-268 partner): T1 sequence (P04632 1-268 partner)
The assay is described as follows: Calpain inhibition continuous fluorescence (FRET) assay, Human Calpain 2/NS1. Conditions: read-out: Human Calpain 2/NS1 IC50. Put shortly:
as §1

`O=C[C@H](Cc1ccccc1)NC(=O)[C@@H]1CCCN1c1nc2ccccc2o1` [Compound 4, (S)-1-(benzo[D]oxazol-2-yl)-N—((S)-1-oxo-3-phenylpropan-2-yl)pyrrolidine-2-carboxamide]: the IC50 on Human Calpain 1/NS1 (Column A), on Human Calpain 9/NS1 (Column C) and on Human Calpain 2/NS1 (Column B) was less than 3 µM throughout.

Turning to `O=C[C@H](Cc1ccccc1)NC(=O)c1cncn1-c1nc2ccccc2s1` [Compound 29, (S)-1-(benzo[d]thiazol-2-yl)-N-(1-oxo-3-phenylpropan-2-yl)-1H-imidazole-5-carboxamide], the IC50 on Human Calpain 1/NS1 (Column A), on Human Calpain 9/NS1 (Column C) and on Human Calpain 2/NS1 (Column B) was less than 3 µM throughout.

Regarding `NC(=O)C(=O)[C@H](Cc1ccccc1)NC(=O)[C@@H]1C[C@@H](OCc2ccccc2)CN1c1ccccc1` [Compound 220, (2S,4R)—N—((S)-4-amino-3,4-dioxo-1-phenylbutan-2-yl)-4-(benzyloxy)-1-phenylpyrrolidine-2-carboxamide], the IC50 was less than 3 µM on Human Calpain 1/NS1 (Column A), 3 to 10 µM at Human Calpain 9/NS1 (Column C) and less than 3 µM on Human Calpain 2/NS1 (Column B).

As to `O=C(NC1CC1)C(=O)[C@H](Cc1ccccc1)NC(=O)c1cncn1-c1ncc(-c2ccccc2)cn1` [Compound 76, (S)—N-(4-(cyclopropylamino)-3,4-dioxo-1-phenylbutan-2-yl)-1-(5-phenylpyrimidin-2-yl)-1H-imidazole-5-carboxamide], the results for the IC50 on Human Calpain 1/NS1 (Column A), on Human Calpain 9/NS1 (Column C) and at Human Calpain 2/NS1 (Column B) were less than 3 µM, 3 to 10 µM and less than 3 µM, respectively.

For the compound “(S)—N-(4-amino-3,4-dioxo-1-phenylbutan-2-yl)-4-chloro-1-ethyl-3-methyl-1H-pyrazole-5-carboxamide [Compound 312]”, the IC50 at Human Calpain 1/NS1 is less than 3 µM; on Human Calpain 9/NS1 it was 3 to 10 µM; on Human Calpain 2/NS1 it was less than 3 µM.

As to `Cn1ncc(C(=O)NC(Cc2ccccc2)C(=O)C(N)=O)c1Cc1ccccc1` (stereo not drawn) [Compound 488, N-(4-amino-3,4-dioxo-1-phenylbutan-2-yl)-5-benzyl-1-methyl-1H-pyrazole-4-carboxamide], the IC50 at Human Calpain 1/NS1, on Human Calpain 9/NS1 and at Human Calpain 2/NS1 was 3 to 10 µM each time.

Turning to `NC(=O)C(=O)[C@H](Cc1ccccc1)NC(=O)c1csnc1-c1ccccc1` [Compound 11, (S)—N-(4-amino-3,4-dioxo-1-phenylbutan-2-yl)-3-phenylisothiazole-4-carboxamide], the IC50 on Human Calpain 1/NS1 (Column A), at Human Calpain 9/NS1 (Column C) and on Human Calpain 2/NS1 (Column B) was less than 3 µM throughout.

Consider `N#Cc1cc(C(=O)N[C@@H](Cc2ccccc2)C(=O)C(N)=O)nn1-c1ccccc1` [Compound 273, (S)—N-(4-amino-3,4-dioxo-1-phenylbutan-2-yl)-5-cyano-1-phenyl-1H-pyrazole-3-carboxamide], for which the IC50 on Human Calpain 1/NS1 (Column A) was more than 10 µM; at Human Calpain 9/NS1 (Column C) it was less than 3 µM; at Human Calpain 2/NS1 (Column B), less than 3 µM.

On to `Cc1noc(-n2cc3ccccc3n2)c1C(=O)N[C@@H](Cc1ccccc1)C(=O)C(N)=O` [Compound 139, (S)—N-(4-amino-3,4-dioxo-1-phenylbutan-2-yl)-5-(2H-indazol-2-yl)-3-methylisoxazole-4-carboxamide], for which the IC50 on Human Calpain 1/NS1 (Column A), on Human Calpain 9/NS1 (Column C) and at Human Calpain 2/NS1 (Column B) was less than 3 µM each time.

As for `NC(=O)C(=O)C(Cc1ccccc1)NC(=O)c1ccnn1Cc1ccccc1` (stereo not drawn) [Compound 283, N-(4-amino-3,4-dioxo-1-phenylbutan-2-yl)-1-benzyl-1H-pyrazole-5-carboxamide], the IC50 on Human Calpain 1/NS1 (Column A), at Human Calpain 9/NS1 (Column C) and at Human Calpain 2/NS1 (Column B) was less than 3 µM in each case.

`O=C[C@H](Cc1ccccc1)NC(=O)c1cncn1-c1ncc(-c2ccccc2)cn1` [Compound 75]: the results for the IC50 on Human Calpain 1/NS1 (Column A), at Human Calpain 9/NS1 (Column C) and on Human Calpain 2/NS1 (Column B) were less than 3 µM, 3 to 10 µM and less than 3 µM, respectively.

For `NC(=O)C(=O)[C@H](Cc1ccccc1)NC(=O)c1cncn1-c1ccccc1` [Compound 7, (S)—N-(4-amino-3,4-dioxo-1-phenylbutan-2-yl)-1-phenyl-1H-imidazole-5-carboxamide], the IC50 on Human Calpain 1/NS1 (Column A), at Human Calpain 9/NS1 (Column C) and on Human Calpain 2/NS1 (Column B) was less than 3 µM throughout.

With `Cn1cc(C(=O)NC(Cc2ccccc2)C(=O)C(N)=O)c(N2CCS(=O)(=O)CC2)n1` (stereo not drawn) [Compound 613, N-(4-amino-3,4-dioxo-1-phenylbutan-2-yl)-3-(1,1-dioxidothiomorpholino)-1-methyl-1H-pyrazole-4-carboxamide], the figures for the IC50 on Human Calpain 1/NS1, on Human Calpain 9/NS1 and at Human Calpain 2/NS1 were 3 to 10 µM, less than 3 µM and 3 to 10 µM, respectively.

Take `Cn1cc(C(=O)N[C@@H](Cc2ccccc2)C(=O)C(N)=O)c(-c2ccncn2)n1` [Compound 192, (S)—N-(4-amino-3,4-dioxo-1-phenylbutan-2-yl)-1-methyl-3-(pyrimidin-4-yl)-1H-pyrazole-4-carboxamide]: the IC50 on Human Calpain 1/NS1 (Column A), at Human Calpain 9/NS1 (Column C) and on Human Calpain 2/NS1 (Column B) was less than 3 µM each time.

Take `Cn1nnc(-c2ccccc2)c1C(=O)N[C@@H](Cc1ccccc1)C(=O)C(N)=O` [Compound 261, (S)—N-(4-amino-3,4-dioxo-1-phenylbutan-2-yl)-1-methyl-4-phenyl-1H-1,2,3-triazole-5-carboxamide]: the IC50 at Human Calpain 1/NS1 (Column A), at Human Calpain 9/NS1 (Column C) and at Human Calpain 2/NS1 (Column B) was less than 3 µM each time.

For the compound `O=C[C@H](Cc1ccccc1)NC(=O)c1cncs1` [Compound 91, (S)—N-(1-oxo-3-phenylpropan-2-yl)thiazole-5-carboxamide], the IC50 on Human Calpain 1/NS1 (Column A) is 3 to 10 µM; at Human Calpain 9/NS1 (Column C) it was 3 to 10 µM; on Human Calpain 2/NS1 (Column B), less than 3 µM.

As for `Cc1nsc(-c2ccccc2)c1C(=O)N[C@@H](Cc1ccccc1)C(=O)C(=O)NC1CC1` [Compound 116, (S)—N-(4-(cyclopropylamino)-3,4-dioxo-1-phenylbutan-2-yl)-3-methyl-5-phenylisothiazole-4-carboxamide], the IC50 on Human Calpain 1/NS1 (Column A) is less than 3 µM; on Human Calpain 9/NS1 (Column C), more than 10 µM; at Human Calpain 2/NS1 (Column B) it was 3 to 10 µM.
